Data as given in patent US20100249071A1, “Modulators of S1P and Methods of Making And Using” (Exelixis, Inc., priority 2009, published 2010).
Where two headings read alike, the source gives them in different places.

Legend:
[1] = biological target: T1, hS1P1R (hEdg1) membrane protein (Homo sapiens, UniProt P21453); test: hS1P1R GTPγS binding assay (Assay 3a); assay type: biochemical
T1 construct: purchased Lonza
Procedure: Assay 3a: The hS1P1R GTPγS binding assay was carried out at room temperature in 96 well non-binding surface assay plates. The reaction in each well contained 4 μg hS1P1R (hEdg1) membrane protein (Lonza), 30 μM GDP, 0.1 nM [^35S]GTPγS, 0.25% fatty acid free BSA, and serially diluted hS1P1R agonist compound in 200 μL assay buffer (25 mM Tris-HCl PH 7.9, 100 mM NaCl, 3 mM MgCl2, and 0.2 mM EGTA). After one hour of incubation, 0.9 mg of WGA (Wheat Germ Agglutinin) SPA beads in 50 μL of assay buffer was added to each well. The SPA beads were spun down after an additional one hour incubation. The radioactivity of the bound GTPγS was counted by reading the assay plate using a MicroBeta.

S1P1 = biological target: T2, S1P1 (Homo sapiens, UniProt P21453); test: Tango β-arrestin recruitment assay in U2OS cells (Assay 2b); assay type: cell-based
T2 construct: host or cells: U2OS
T2 sequence (P32121 whole entry): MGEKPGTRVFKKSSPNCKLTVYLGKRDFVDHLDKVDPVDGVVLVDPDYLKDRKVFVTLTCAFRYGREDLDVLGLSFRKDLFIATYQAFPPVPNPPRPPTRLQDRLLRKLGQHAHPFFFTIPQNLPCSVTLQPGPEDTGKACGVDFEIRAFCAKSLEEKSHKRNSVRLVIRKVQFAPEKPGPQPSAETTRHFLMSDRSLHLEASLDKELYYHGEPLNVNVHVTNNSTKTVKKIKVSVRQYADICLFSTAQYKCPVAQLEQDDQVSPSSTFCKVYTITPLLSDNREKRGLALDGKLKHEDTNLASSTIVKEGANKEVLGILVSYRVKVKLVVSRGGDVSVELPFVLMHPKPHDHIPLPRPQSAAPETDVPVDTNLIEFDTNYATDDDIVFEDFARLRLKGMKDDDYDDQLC
T2 sequence (P21453 whole entry): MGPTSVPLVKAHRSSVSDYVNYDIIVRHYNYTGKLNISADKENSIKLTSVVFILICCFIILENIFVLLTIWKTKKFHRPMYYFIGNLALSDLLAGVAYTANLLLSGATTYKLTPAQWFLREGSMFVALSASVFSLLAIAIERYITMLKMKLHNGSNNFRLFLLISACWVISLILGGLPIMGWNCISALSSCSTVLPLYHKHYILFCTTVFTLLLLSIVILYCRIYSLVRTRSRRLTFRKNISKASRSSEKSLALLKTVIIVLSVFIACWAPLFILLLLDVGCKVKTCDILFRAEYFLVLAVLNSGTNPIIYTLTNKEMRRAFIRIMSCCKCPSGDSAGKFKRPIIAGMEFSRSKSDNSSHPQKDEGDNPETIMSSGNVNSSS
From the text: (§1) For the Tango™ β-arrestin recruitment assay, the cytoplasmic C-terminus of S1P1 was tethered to the tTA transcriptional activator with a linker that contains a cleavage site for the N1a protease from tobacco etch virus (TEV protease). The C-terminus of the human β-arrestin2 protein was fused to TEV protease. Binding of an agonist recruits the βl -arrestin-TEV fusion protein to the receptor resulting in cleavage of the linker and released of tTA to enter the nucleus and subsequently activated a tTA-dependent luciferase reporter gene.
Assay 2b: Alternatively, U2OS cells expressing the reporter gene and S1P1 (Invitrogen) were added to the wells of a 384-well white opaque bottom assay plate (PerkinElmer) at […]. The cells were serum starved for 48 h in Freestyle medium (Invitrogen). Test compounds were tested at maximum concentrations of 1 μM for the agonist assay. Compounds were diluted in DMSO (10 concentration points, 3-fold each) and added to the assay plate at a 1% final DMSO concentration. The efficacy control was 1 μM S1P (Avanti). For each compound, there were duplicate assay plates and each assay plate had duplicate wells per concentration point. The plate was incubated overnight at 37° C. The GeneBLAzer β-lactamase assay reagent (Invitrogen) was added and the plates were incubated for an additional 2 h at room temperature. Fluorescence was measured using an EnVision plate reader (PerkinElmer, Waltham, Mass.) at an excitation wavelength of 409 nm and emission wavelengths of 460 nm and 530 nm. The emission intensity at each wavelength was background subtracted against wells containing medium only and the F460 nm/F530 nm ratio determined for each concentration of the test compounds. Percent activity was calculated as [(test compound ratio−DMSO ratio)/(positive control ratio−DMSO ratio)*100], where the positive control and DMSO ratios are from cells incubated with the efficacy control 1 μM S1P and 1% DMSO, respectively. The percent activities were plotted against compound concentration to determine EC50 using XLFit (IDBS).

S1P3 = biological target: T3, S1P3 (Homo sapiens, UniProt Q99500); test: S1P3 Tango β-arrestin recruitment assay in HEK293 cells (Assay 5); assay type: cell-based; conditions: read-out: Assay 5 EC50
T3 construct: host or cells: HEK293 (transient transfection)
T3 sequence (P32121 whole entry): as the sequence (P32121 whole entry) above
T3 sequence (Q99500 whole entry): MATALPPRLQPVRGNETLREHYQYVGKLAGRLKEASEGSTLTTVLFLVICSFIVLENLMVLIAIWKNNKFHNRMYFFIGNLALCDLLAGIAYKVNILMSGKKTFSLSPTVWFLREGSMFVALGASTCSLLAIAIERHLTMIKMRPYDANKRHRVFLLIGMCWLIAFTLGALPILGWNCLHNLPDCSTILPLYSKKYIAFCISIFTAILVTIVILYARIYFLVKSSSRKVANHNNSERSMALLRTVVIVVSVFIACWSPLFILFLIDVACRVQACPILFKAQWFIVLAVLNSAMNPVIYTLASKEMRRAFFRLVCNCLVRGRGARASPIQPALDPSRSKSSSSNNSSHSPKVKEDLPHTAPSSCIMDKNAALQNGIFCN
From the text: as §1
Assay 2a: Frozen HEK293 cells transiently transfected with receptor cDNAs for S1P1 (Invitrogen) are thawed and suspended in 10 mL of Pro293a-CDM culture medium (Invitrogen) supplemented with 4 mM L-Glutamine (Invitrogen), 1× Pen/Strep (100 units/mL penicillin and 100 μg/mL streptomycin, Invitrogen) and 0.1% fatty acid free BSA (Sigma-Aldrich). Cells are added to the wells of a 384-well white opaque bottom assay plate (PerkinElmer) at 3,000-6,000 cells per well and the plate is incubated for approximately 4 h in a 37° C. incubator. Test compounds are tested at maximum concentrations of 10 μM for the agonist assays. Compounds are diluted in DMSO (10 concentration points, 3-fold each) and added to the assay plate at a 1% final DMSO concentration. For each compound, there are duplicate assay plates and each assay plate has duplicate wells per concentration point. The plate is incubated at 37° C. for 30 min. The efficacy control is 5 μM S1P (Avanti). Following agonist addition, the assay plates are incubated in a 37° C. incubator for 16-18 h. Luciferase assay reagent is added and luminescence measured in an EnVision plate reader (PerkinElmer). To determine agonist activity, percent activity is calculated as [(test compound−background)/(positive control−background)*100], where background is the luminescence of the DMSO alone control and the positive control is the luminescence from cells incubated with the efficacy control 5 μM S1P. The percent activities are plotted against compound concentration to determine EC50 using XLFit (IDBS).
This assay was conducted using the procedures described in Assay 2a, replacing S1P1 with S1P3.

[2] = biological target: T4, hS1PR5 (hEdg8) membrane protein (Homo sapiens, UniProt Q9H228); test: hS1P5R GTPγS binding assay (Assay 4); assay type: biochemical
T4 construct: expressed in transfected cells; host or cells: CHO
T4 sequence (Q9H228 whole entry): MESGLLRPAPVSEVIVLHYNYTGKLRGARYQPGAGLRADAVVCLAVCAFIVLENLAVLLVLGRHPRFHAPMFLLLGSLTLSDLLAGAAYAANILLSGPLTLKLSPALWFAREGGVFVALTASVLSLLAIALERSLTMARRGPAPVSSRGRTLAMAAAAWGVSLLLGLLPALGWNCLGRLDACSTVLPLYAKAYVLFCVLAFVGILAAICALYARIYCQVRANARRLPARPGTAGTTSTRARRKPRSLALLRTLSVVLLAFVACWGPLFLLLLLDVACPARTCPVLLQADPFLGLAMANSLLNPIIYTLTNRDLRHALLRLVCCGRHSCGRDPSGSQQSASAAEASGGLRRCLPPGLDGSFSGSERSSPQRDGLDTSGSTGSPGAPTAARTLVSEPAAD
Procedure: The hS1PR5 GTPγS binding assay was carried out at room temperature in 96-well non-binding surface assay plates. The reaction in each well contained 5 μg hS1PR5 (hEdg8) membrane protein from CHO cells expressing hS1PR5, 30 μM GDP, 0.1 nM [^35S]GTPγS, 0.25% fatty acid free BSA, and serially-diluted Compound of the Invention in 200 μL assay buffer (25 mM Tris-HCl PH 7.9, 100 mM NaCl, 3 mM MgCl2, and 0.2 mM EGTA). After one hour of incubation, 0.9 mg of WGA (Wheat Germ Agglutinin) SPA beads in 50 μL of assay buffer was added to each well. The SPA beads were spun down after an additional one hour incubation. The radioactivity of the bound GTPγS was counted by reading the assay plate using a MicroBeta.

T1 sequence (P21453 whole entry): as the sequence (P21453 whole entry) above

Compound	EC50 [1] [nM]	EC50 (S1P1; read-out: Assay 2b EC50) [nM]	EC50 (S1P3) [nM]	EC50 [2] [nM]	EC50 (S1P1; * = rEC50 measured rather than EC50, read-out: Assay 2b rEC50 (relative EC50, cells marked *)) [nM]
N[C@H](CO)COc1cc(Cl)c(-c2nnc(-c3cc(Cl)cc(Br)c3)s2)cc1F [Entry 23, (2R)-2-amino-3-({4-[5-(3-bromo-5-chlorophenyl)-1,3,4-thiadiazol-2-yl]-5-chloro-2-fluorophenyl}oxy)propan-1-ol]	250 to 2800	250 to 2800		250 to 2800	
CC(C)Oc1c(Cl)cc(-c2nnc(-c3cc(F)c(OC[C@H](N)CO)cc3Cl)s2)cc1Cl [Entry 26, (2R)-2-amino-3-{[5-chloro-4-(5-{3,5-dichloro-4-[(1-methylethyl)oxy]phenyl}-1,3,4-thiadiazol-2-yl)-2-fluorophenyl]oxy}propan-1-ol]	50 to 250	250 to 2800		250 to 2800	
CC(C)Oc1cc(Br)cc(-c2nnc(-c3cc(F)c(OC[C@H](N)CO)cc3Cl)s2)c1 [Entry 27, (2R)-2-amino-3-{[4-(5-{3-bromo-5-[(1-methylethyl)oxy]phenyl}-1,3,4-thiadiazol-2-yl)-5-chloro-2-fluorophenyl]oxy}propan-1-ol]	50 to 250	250 to 2800			
N[C@H](CO)COc1cc(Cl)c(-c2nnc(-c3cc(Br)cc(Br)c3)s2)cc1F [Entry 30, (2R)-2-amino-3-({5-chloro-4-[5-(3,5-dibromophenyl)-1,3,4-thiadiazol-2-yl]-2-fluorophenyl}oxy)propan-1-ol]	250 to 2800	250 to 2800		2800 to 10000	
CC(C)Nc1cc(-c2nnc(-c3cc(F)c(OC[C@H](N)[C@H](C)O)cc3Cl)s2)ccn1 [Entry 58, (2S,3S)-3-amino-4-{[5-chloro-2-fluoro-4-(5-{2-[(1-methylethyl)amino]pyridin-4-yl}-1,3,4-thiadiazol-2-yl)phenyl]oxy}butan-2-ol]	50 to 250	250 to 2800		250 to 2800	
Cc1cc(-c2nnc(-c3cc(F)c(OC[C@H](N)[C@H](C)O)cc3Cl)s2)cnc1NC(C)C [Entry 66, (2S,3S)-3-amino-4-{[5-chloro-2-fluoro-4-(5-{5-methyl-6-[(1-methylethyl)amino]pyridin-3-yl}-1,3,4-thiadiazol-2-yl)phenyl]oxy}butan-2-ol]					250 to 2800
N[C@H](CO)COc1cc(Cl)c(-c2nnc(-c3cc(-c4ccccc4)c(C(F)(F)F)s3)s2)cc1F [Entry 84, (2R)-2-amino-3-[(5-chloro-2-fluoro-4-{5-[4-phenyl-5-(trifluoromethyl)-2-thienyl]-1,3,4-thiadiazol-2-yl}phenyl)oxy]propan-1-ol]		250 to 2800			
CCCOc1ccc(-c2nnc(-c3cc(F)c(OC[C@H](N)CO)cc3Cl)s2)cc1 [Entry 91, (2R)-2-amino-3-[(5-chloro-2-fluoro-4-{5-[4-(propyloxy)phenyl]-1,3,4-thiadiaozl-2-yl}phenyl)oxy]propan-1-ol]	50 to 250	250 to 2800		250 to 2800	

Second part, the compound after the results:

EC50 [1] [nM]	EC50 (S1P1; read-out: Assay 2b EC50) [nM]	EC50 (S1P3) [nM]	EC50 [2] [nM]	EC50 (S1P1; * = rEC50 measured rather than EC50, read-out: Assay 2b rEC50 (relative EC50, cells marked *)) [nM]	Compound
> 10000	50 to 250				NC(CO)COc1cc(Cl)c(-c2nnc(-c3cn4ccsc4n3)s2)cc1F (stereo not shown) [Entry 4, 2-amino-3-{[5-chloro-2-fluoro-4-(5-imidazo[2,1-b][1,3]thiazol-6-yl-1,3,4-thiadiazol-2-yl)phenyl]oxy}propan-1-ol]
50 to 250	250 to 2800				N[C@H](CO)COc1cc(Cl)c(-c2nnc(-c3ccc(OC(F)(F)F)cc3)s2)cc1F [Entry 7, (2R)-2-amino-3-{[5-chloro-2-fluoro-4-(5-{4-[(trifluoromethyl)oxy]phenyl}-1,3,4-thiadiazol-2-yl)phenyl]oxy}propan-1-ol]
50 to 250	250 to 2800				N[C@H](CO)COc1cc(Cl)c(-c2nnc(-c3ccc(OC(F)(F)F)c(Cl)c3)s2)cc1F [Entry 8, (2R)-2-amino-3-{[5-chloro-4-(5-{3-chloro-4-[(trifluoromethyl)oxy]phenyl}-1,3,4-thiadiazol-2-yl)-2-fluorophenyl]oxy}propan-1-ol]
10 to 50	≤ 10	≤ 250			CC(C)Oc1ccc(-c2nnc(-c3cc(F)c(OCC(N)CO)cc3Cl)s2)nc1Cl (stereo not shown) [Entry 14, 2-amino-3-{[5-chloro-4-(5-{6-chloro-5-[(1-methylethyl)oxy]pyridin-2-yl}-1,3,4-thiadiazol-2-yl)-2-fluorophenyl]oxy}propan-1-ol]
50 to 250	50 to 250	> 10000			N[C@H](CO)COc1cc(Cl)c(-c2nnc(-c3cc(Br)cc(OC(F)(F)F)c3)s2)cc1F [Entry 28, (2R)-2-amino-3-{[4-(5-{3-bromo-5-[(trifluoromethyl)oxy]phenyl}-1,3,4-thiadiazol-2-yl)-5-chloro-2-fluorophenyl]oxy}propan-1-ol]
50 to 250	≤ 10	≤ 250			CC(C)N(C)c1cc(-c2nnc(-c3cc(F)c(OC[C@@H](N)CO)cc3Cl)s2)cc(Cl)n1 [Entry 31, (2S)-2-amino-3-{[5-chloro-4-(5-{2-chloro-6-[methyl(1-methylethyl)amino]pyridin-4-yl}-1,3,4-thiadiazol-2-yl)-2-fluorophenyl]oxy}propan-1-ol]
10 to 50	≤ 10	≤ 250			CC(C)Oc1ccc(-c2nnc(-c3cc(F)c(OC[C@@H](N)CO)cc3Cl)s2)nc1Cl [Entry 33, (2S)-2-amino-3-{[5-chloro-4-(5-{6-chloro-5-[(1-methylethyl)oxy]pyridin-2-yl}-1,3,4-thiadiazol-2-yl)-2-fluorophenyl]oxy}propan-1-ol]
10 to 50	50 to 250	> 10000			CC(C)Oc1ccc(-c2nnc(-c3ccc(OC[C@H](N)CO)cc3Cl)s2)cc1Cl [Entry 34, (2R)-2-amino-3-{[3-chloro-4-(5-{3-chloro-4-[(1-methylethyl)oxy]phenyl}-1,3,4-thiadiazol-2-yl)phenyl]oxy}propan-1-ol]
10 to 50	50 to 250		50 to 250		CC(C)Oc1ccc(-c2nnc(-c3cc(F)c(OC[C@H](N)CO)cc3Cl)s2)cc1F [Entry 42, (2R)-2-amino-3-{[5-chloro-2-fluoro-4-(5-{3-fluoro-4-[(1-methylethyl)oxy]phenyl}-1,3,4-thiadiazol-2-yl)phenyl]oxy}propan-1-ol]
≤ 10	≤ 10		10 to 50		(1R,2R)-2-amino-3-{[5-chloro-2-fluoro- 4-(5-{2-methyl-6-[(1- methylethyl)amino]pyridin-4-yl}-1,3,4- thiadiazol-2-yl)phenyl]oxy}-1- methylpropyl dihydrogen phosphate [Entry 100]
